This is an account of results in paper PMC8386120, “Crystal Structure of Inorganic Pyrophosphatase From Schistosoma japonicum Reveals the Mechanism of Chemicals and Substrate Inhibition” (Frontiers in Cell and Developmental Biology, 2021).

What is called stoichiometry N is a count of units in the complex or per binding partner.

For experiment [1], the target named is T1, SjPPase (Schistosoma japonicum, UniProt Q5DE13).
T1 sequence (Q5DE13 1-287): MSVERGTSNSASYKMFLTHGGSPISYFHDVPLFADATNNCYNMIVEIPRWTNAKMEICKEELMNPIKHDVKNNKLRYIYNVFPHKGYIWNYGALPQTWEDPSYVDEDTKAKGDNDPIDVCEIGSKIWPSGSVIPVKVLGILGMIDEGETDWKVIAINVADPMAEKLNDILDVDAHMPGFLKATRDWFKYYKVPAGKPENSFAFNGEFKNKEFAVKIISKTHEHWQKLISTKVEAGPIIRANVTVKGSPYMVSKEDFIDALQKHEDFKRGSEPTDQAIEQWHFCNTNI
Put plainly: Pi release, PiPer fluorescence phosphate assay. It is filed as biochemical. More on the design: homodimer; crystal residues 1-284 and 1-283. The conditions noted are these: 1 and 2 mM MDP; PPi substrate, Mg2+, 25 C.

Experiment [2] addresses T1, SjPPase. The conditions noted are these: Co2+ bound; active site, P2 site (F intermediate).
The target in experiment [3] is Schistosoma japonicum soluble inorganic pyrophosphatase (recombinant SjPPase) (Schistosoma japonicum). Put plainly: crystal structure; X-ray crystal structures of apo-SjPPase (4QMB) and of SjPPase with Pi and cobalt ions (4QLZ); space group P32, two molecules in the asymmetric unit; first crystals from 0.2 M sodium malonate, 20% PEG 3,350, later optimised; protein at 16-18 mg/ml.

In the case of `O=P(O)(O)CP(=O)(O)O` [methylene diphosphonic acid], at SjPPase [1], the inhibition result was “inhibitors NaF and MDP inhibited the enzymatic activity of SjPPase”.
For `O=P(O)(O)O` [orthophosphate], the “X-ray crystal structure, 2.33 A” value at SjPPase [2] is listed as “the Pi in the SjPPase-Pi complex structure is at the P2 site”.
Turning to “Schistosoma japonicum soluble inorganic pyrophosphatase (recombinant SjPPase) (enzyme)”, in experiment [3], the stoichiometry N came out at 2.
